In patent publication US8536168B2 (Novartis AG, priority 2007, dated 2013) one finds IC50 data, which are given here for 34 compounds.

pIC50: −log10 of the molar value. Read-outs that look alike come from different tables or passages of the source.

In assay [1] the target is mouse Smoothened receptor (Mus musculus, UniProt P56726). The assay is described as follows: Smo binding assay, displacement of radio-labeled smoothened agonist, filter binding format (mouse). To be noted: displacement of small molecule agonist of Smoothened, read-out: Mouse Smo bdg., IC50. The source says:
A Smo binding assay was developed using radio-labeled smoothened agonist for compound competition.

For assay [2], the system named is Gli-luciferase activity. Kind of assay: Reporter gene assay (RGA) in TMHh12 cells, antagonism of Gli-luciferase activity in the presence of a Smo agonist. The assay is classed as cell-based. How it is done:
Activity of the compounds was evaluated using a reporter gene assay (RGA) in TMHh12 cells.
A general note: In a reporter assay the amount or activity of a reporter protein is the signal.

In assay [3] the target is human Smoothened receptor (Homo sapiens, UniProt Q99835). The assay is described as follows: Smo binding assay, displacement of radio-labeled smoothened agonist, filter binding format (human). To be noted: displacement of small molecule agonist of Smoothened, read-out: Human Smo bdg., IC50. The source says:
A Smo binding assay was developed using radio-labeled smoothened agonist for compound competition. Table 9 lists the IC50 for displacement of a small molecule agonist of Smoothened determined in a filter binding format for the mouse and human Smoothened receptor.

Where [4] appears, read: 25 nM small molecule Smo agonist, read-out: RGA (25 nM Smo agonist) IC50.
The mark [5] stands for this setting: read-out: RGA (1 nM Smo agonist) IC50, 1 nM small molecule Smo agonist.

Chain of human Smoothened receptor (Q99835 28-787): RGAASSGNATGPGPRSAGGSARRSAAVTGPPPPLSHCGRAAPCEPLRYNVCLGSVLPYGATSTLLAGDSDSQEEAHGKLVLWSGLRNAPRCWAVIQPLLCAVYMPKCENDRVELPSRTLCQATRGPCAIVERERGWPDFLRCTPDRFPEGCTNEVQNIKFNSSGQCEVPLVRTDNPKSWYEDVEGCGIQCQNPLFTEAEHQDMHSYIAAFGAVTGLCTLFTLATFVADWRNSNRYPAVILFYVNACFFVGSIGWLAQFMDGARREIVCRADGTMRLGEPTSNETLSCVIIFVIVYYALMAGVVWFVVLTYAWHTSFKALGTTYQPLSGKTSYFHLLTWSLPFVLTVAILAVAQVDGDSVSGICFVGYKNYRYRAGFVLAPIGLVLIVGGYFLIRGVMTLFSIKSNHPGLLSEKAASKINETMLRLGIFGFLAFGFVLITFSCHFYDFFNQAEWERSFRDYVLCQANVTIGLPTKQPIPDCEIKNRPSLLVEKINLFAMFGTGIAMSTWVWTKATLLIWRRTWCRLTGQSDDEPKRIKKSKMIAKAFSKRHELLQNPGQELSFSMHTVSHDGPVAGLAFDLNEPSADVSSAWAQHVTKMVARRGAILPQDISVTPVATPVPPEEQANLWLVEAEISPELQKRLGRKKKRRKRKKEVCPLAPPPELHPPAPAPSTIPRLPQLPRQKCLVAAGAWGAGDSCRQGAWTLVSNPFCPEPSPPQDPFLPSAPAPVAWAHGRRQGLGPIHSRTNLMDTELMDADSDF
Chain of mouse Smoothened receptor (P56726 33-793): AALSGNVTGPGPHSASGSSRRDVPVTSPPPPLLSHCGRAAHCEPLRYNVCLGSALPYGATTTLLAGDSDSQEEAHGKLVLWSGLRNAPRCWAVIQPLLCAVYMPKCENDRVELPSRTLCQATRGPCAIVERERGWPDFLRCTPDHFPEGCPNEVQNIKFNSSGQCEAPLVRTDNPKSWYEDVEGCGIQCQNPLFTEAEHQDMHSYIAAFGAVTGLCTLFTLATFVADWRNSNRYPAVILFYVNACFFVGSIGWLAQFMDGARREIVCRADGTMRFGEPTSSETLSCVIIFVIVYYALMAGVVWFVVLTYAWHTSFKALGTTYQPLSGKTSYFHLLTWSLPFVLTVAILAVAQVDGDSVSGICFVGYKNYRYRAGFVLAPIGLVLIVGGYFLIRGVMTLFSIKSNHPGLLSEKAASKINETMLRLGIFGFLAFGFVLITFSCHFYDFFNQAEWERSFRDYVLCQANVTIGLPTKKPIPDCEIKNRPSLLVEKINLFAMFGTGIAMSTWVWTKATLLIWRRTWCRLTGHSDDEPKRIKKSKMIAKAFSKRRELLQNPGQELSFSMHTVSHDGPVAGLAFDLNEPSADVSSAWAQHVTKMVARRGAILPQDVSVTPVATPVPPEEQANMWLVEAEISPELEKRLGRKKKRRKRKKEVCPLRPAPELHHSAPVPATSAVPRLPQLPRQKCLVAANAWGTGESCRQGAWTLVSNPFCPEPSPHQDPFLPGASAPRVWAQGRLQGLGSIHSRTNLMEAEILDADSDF

Turning to `CCOC(=O)c1ccc(N2CCN(c3nnc(Cc4ccccc4)c4ccccc34)CC2)cc1` [Example 5], the pIC50 in assay [1] is more than 7.00; in assay [2] (setting [4]), 6.00 to 7.00; in assay [2] (setting [5]), more than 7.00; in assay [3] it was more than 7.00.
Consider `N#Cc1ccc(N2CCN(c3nnc(Cc4ccc(C(=O)O)cc4)c4ccccc34)CC2)nc1` [Example 180], for which the pIC50 was 4.40 to 5.00 in assay [1], 4.40 to 5.00 in assay [2] (setting [4]), 5.00 to 6.00 in assay [2] (setting [5]) and 4.40 to 5.00 in assay [3].
For `CC(C)(O)c1ccc(N2CCN(c3nnc(Cc4ccc(F)cc4F)c4ccccc34)CC2)nc1` [Example 193], the negative-log IC50 (pIC50) in assay [1], in assay [2] (setting [4]), in assay [2] (setting [5]) and in assay [3] was more than 7.00 throughout.
Turning to `O=C(c1cnc(N2CCN(c3nnc(Cc4ccccc4)c4ccccc34)CC2)nc1)N1CCOCC1` [Example 54bb], the pIC50 in assay [1] was more than 7.00; in assay [2] (setting [4]), 6.00 to 7.00; in assay [2] (setting [5]) it was more than 7.00; in assay [3] it was 6.00 to 7.00.
For the compound `FC(F)(F)c1ccc(N2CCN(c3nnc(Cc4ccccc4)c4[nH]cnc34)CC2)nc1` [Example 247, 7-Benzyl-4-[4-(5-trifluoromethyl-pyridin-2-yl)-piperazin-1-yl]-1H-imidazo[4,5-d]pyridazine], the pIC50 in assay [1] is 6.00 to 7.00; in assay [2] (setting [4]), 5.00 to 6.00; in assay [2] (setting [5]) it was 5.00 to 6.00; in assay [3], 6.00 to 7.00.
With `CCOC(=O)c1ccc(N2CCN(c3nnc(Cc4ccc(Cl)cc4Cl)c4ccccc34)CC2)nc1` [Example 186], the negative logarithm of the IC50 (pIC50) in assay [1] was more than 7.00; in assay [2] (setting [4]) it was 6.00 to 7.00; in assay [2] (setting [5]) it was 6.00 to 7.00; in assay [3], more than 7.00.
As for `COCC(=O)NC(C)(C)c1ccc(N2CCN(c3nnc(Cc4ccccc4)c4ccccc34)CC2)nc1` [Example 121, N-(2-(6-(4-(4-Benzylphthalazin-1-yl)piperazin-1-yl)pyridin-3-yl)propan-2-yl)-2-methoxyacetamide], the pIC50 in assay [1], in assay [2] (setting [4]), in assay [2] (setting [5]) and in assay [3] was more than 7.00 in each case.
`CC(C)(NC(=O)OCc1ccccc1)c1ccc(N2CCN(c3nnc(Cc4ccccc4)c4ccccc34)CC2)nc1` [Example 123]: the pIC50 was more than 7.00 in assay [1], 6.00 to 7.00 in assay [2] (setting [4]), more than 7.00 in assay [2] (setting [5]) and more than 7.00 in assay [3].
As to `COC(=O)c1ccc(N2CCN(c3nnc(Cc4ccccc4)c4ccccc34)CC2)nn1` [Example 139], the pIC50 in assay [1] was more than 7.00; in assay [2] (setting [4]), 5.00 to 6.00; in assay [2] (setting [5]), 6.00 to 7.00; in assay [3], more than 7.00.
Take `FC(F)(F)c1ccnc(N2CCN(c3nnc(Cc4ccccc4)c4ccccc34)CC2)n1` [Example 50]: the pIC50 in assay [1] is 6.00 to 7.00; in assay [2] (setting [4]), 6.00 to 7.00; in assay [2] (setting [5]), more than 7.00; in assay [3] it was 6.00 to 7.00.
In the case of `N#Cc1ccc(N2CCC(c3cn(Cc4ccccc4)c4ccccc34)CC2)nc1` [Example 100], the pIC50 in assay [1] was 6.00 to 7.00; in assay [2] (setting [4]), 5.00 to 6.00; in assay [2] (setting [5]), 6.00 to 7.00; in assay [3] it was 6.00 to 7.00.
`Fc1ccc(Cn2cc(C3CCN(c4ccc(C(F)(F)F)cn4)CC3)c3ccccc32)cc1` [Example 95, 4-[1-(4-Fluoro-benzyl)-1H-indol-3-yl)-5′-trifluoromethyl-3,4,5,6-tetrahydro-2H-[1,2]-bipyridinyl]: the pIC50 in assay [1] is 6.00 to 7.00; in assay [2] (setting [4]), 5.00 to 6.00; in assay [2] (setting [5]), more than 7.00; in assay [3] it was 6.00 to 7.00.
On to `C[C@H]1CN(c2ccc(C(C)(C)O)cn2)CCN1c1nnc(Cc2ccc(F)cc2F)c2ccccc12` [Example 195], for which the pIC50 in assay [1], in assay [2] (setting [4]), in assay [2] (setting [5]) and in assay [3] was more than 7.00 throughout.
Turning to `N#Cc1ccc(N2CCN(c3nnc(Cc4ccc(Br)cc4)c4ccccc34)CC2)nc1` [Example 66], the pIC50 in assay [1] is more than 7.00; in assay [2] (setting [4]), 6.00 to 7.00; in assay [2] (setting [5]), more than 7.00; in assay [3] it was more than 7.00.
For the compound `CCOC(=O)c1ccc(N2CCN(c3nnc(Cc4ccccc4F)c4ccccc34)CC2)nc1` [Example 184], the pIC50 was more than 7.00 in assay [1], 6.00 to 7.00 in assay [2] (setting [4]), 6.00 to 7.00 in assay [2] (setting [5]) and more than 7.00 in assay [3].
`N#Cc1cccc(C(=O)N2CCC(c3cn(Cc4ccccc4)c4ccccc34)CC2)c1` [Example 103]: the pIC50 in assay [1], in assay [2] (setting [4]), in assay [2] (setting [5]) and in assay [3] was 5.00 to 6.00 each time.
`CP(C)(=O)c1ccc(N2CCN(c3nnc(Cc4ccccc4)c4ccccc34)CC2)nc1` [Example 107]: the pIC50 in assay [1] was 6.00 to 7.00; in assay [2] (setting [4]), 6.00 to 7.00; in assay [2] (setting [5]), more than 7.00; in assay [3], 6.00 to 7.00.
In the case of `N#Cc1ccc(N2CCN(c3nnc(Cc4cccc(Cl)c4)c4ccccc34)CC2)nc1` [Example 60], the pIC50 was more than 7.00 in assay [1], 6.00 to 7.00 in assay [2] (setting [4]), more than 7.00 in assay [2] (setting [5]) and 6.00 to 7.00 in assay [3].
Regarding `NS(=O)(=O)c1ccc(N2CCN(c3nnc(Cc4ccccc4)c4ccccc34)CC2)nc1` [Example 132], the pIC50 in assay [1] is more than 7.00; in assay [2] (setting [4]) it was 6.00 to 7.00; in assay [2] (setting [5]), more than 7.00; in assay [3], more than 7.00.
Consider `FC1(F)CN(Cc2ccc(N3CCN(c4nnc(Cc5ccccc5)c5ccccc45)CC3)nc2)C1` [Example 229], for which the pIC50 was more than 7.00 in assay [1], 6.00 to 7.00 in assay [2] (setting [4]), 6.00 to 7.00 in assay [2] (setting [5]) and more than 7.00 in assay [3].
`N#Cc1ccc(N2CCN(c3nnc(Cc4cccc(F)c4)c4ccccc34)CC2)nc1` [Example 182]: the pIC50 in assay [1], in assay [2] (setting [4]), in assay [2] (setting [5]) and in assay [3] was 6.00 to 7.00 each time.
On to `N#Cc1ccc(N2CCN(c3ncc(Cc4ccccc4)c4ccccc34)CC2)nc1` [Example 83, 6-[4-(4-Benzyl-isoquinolin-1-yl)-piperazin-1-yl]-nicotinonitrile], for which the pIC50 in assay [1] was 5.00 to 6.00; in assay [2] (setting [4]) it was 6.00 to 7.00; in assay [2] (setting [5]), 6.00 to 7.00; in assay [3], 5.00 to 6.00.
As for `N#Cc1ccc(N2CCN(c3nnc(Cc4cccc(C#N)c4)c4ccccc34)CC2)nc1` [Example 65], the pIC50 in assay [1] is 6.00 to 7.00; in assay [2] (setting [4]) it was 5.00 to 6.00; in assay [2] (setting [5]), 6.00 to 7.00; in assay [3] it was 6.00 to 7.00.
In the case of `CC(C)(O)c1ccc(N2CCN(c3nnc(Cc4ccccc4)c4ccccc34)CC2)nn1` [Example 152], the pIC50 is more than 7.00 in assay [1], 6.00 to 7.00 in assay [2] (setting [4]), more than 7.00 in assay [2] (setting [5]) and 6.00 to 7.00 in assay [3].
For the compound `FC(F)(F)c1ccc(N2CCN(c3nnc(Cc4ccccc4)c4occc34)CC2)nc1` [Example 245, 7-Benzyl-4-[4-(5-trifluoromethyl-pyridin-2-yl)-piperazin-1-yl]-furo[2,3-d]pyridazine], the pIC50 in assay [1] is 6.00 to 7.00; in assay [2] (setting [4]), 5.00 to 6.00; in assay [2] (setting [5]) it was more than 7.00; in assay [3] it was 6.00 to 7.00.
Regarding `COCC(=O)NCc1ccc(N2CCN(c3nnc(Cc4ccccc4)c4ccccc34)CC2)cc1` [Example 78b], the pIC50 in assay [1] was 6.00 to 7.00; in assay [2] (setting [4]), 6.00 to 7.00; in assay [2] (setting [5]), more than 7.00; in assay [3] it was 6.00 to 7.00.
On to `CN(C)C(=O)c1cnc(N2CCN(c3nnc(Cc4ccccc4)c4ccccc34)CC2)nc1` [Example 54aa], for which the pIC50 was 6.00 to 7.00 in assay [1], 6.00 to 7.00 in assay [2] (setting [4]), more than 7.00 in assay [2] (setting [5]) and 6.00 to 7.00 in assay [3].
Regarding `COc1cc(=O)[nH]c(N2CCN(c3nnc(Cc4ccccc4)c4ccccc34)CC2)n1` [Example 46], the pIC50 in assay [1] is 6.00 to 7.00; in assay [2] (setting [4]), 4.40 to 5.00; in assay [2] (setting [5]) it was 5.00 to 6.00; in assay [3], 6.00 to 7.00.
As for `CCC(=O)NCc1ccc(N2CCN(c3nnc(Cc4ccccc4)c4ccccc34)CC2)nc1` [Example 207], the pIC50 in assay [1] was 6.00 to 7.00; in assay [2] (setting [4]), 6.00 to 7.00; in assay [2] (setting [5]), more than 7.00; in assay [3], 6.00 to 7.00.
Take `N#Cc1ccc(N2CCN(c3cnc(Cc4ccccc4)c4ccccc34)CC2)nc1` [Example 79, 6-[4-(1-Benzyl-isoquinolin-4-yl)-piperazin-1-yl]-nicotinonitrile]: the negative-log IC50 (pIC50) in assay [1] was 6.00 to 7.00; in assay [2] (setting [4]), 6.00 to 7.00; in assay [2] (setting [5]) it was 6.00 to 7.00; in assay [3] it was 5.00 to 6.00.
As to `N#Cc1ccc(N2CCN(c3nnc(Cc4ccccc4)c4ccccc34)CC2)nc1` [Example 1, 6-[4-(4-Benzyl-phthalazin-1-yl)-piperazin-1-yl]-nicotinonitrile], the pIC50 in assay [1] is more than 7.00; in assay [2] (setting [4]) it was 5.00 to 6.00; in assay [2] (setting [5]), more than 7.00; in assay [3], 6.00 to 7.00.
As to `Cc1ccc(Cc2nnc(N3CCN(c4ccc(C#N)cn4)CC3)c3ccccc23)cc1` [Example 173], the pIC50 in assay [1] is more than 7.00; in assay [2] (setting [4]) it was 6.00 to 7.00; in assay [2] (setting [5]), more than 7.00; in assay [3], more than 7.00.
In the case of `N#Cc1ccc(N2CCN(c3nnc(Cc4ccc5ccccc5c4)c4ccccc34)CC2)nc1` [Example 62], the pIC50 was more than 7.00 in assay [1], 5.00 to 6.00 in assay [2] (setting [4]), more than 7.00 in assay [2] (setting [5]) and more than 7.00 in assay [3].
For `c1ccc(Cc2nnc(N3CCN(c4ccc(CN5CCOCC5)cn4)CC3)c3ccccc23)cc1` [Example 222, 1-Benzyl-4-[4-(5-morpholin-4-ylmethyl-pyridin-2-yl)-piperazin-1-yl]-phthalazine], the pIC50 in assay [1], in assay [2] (setting [4]), in assay [2] (setting [5]) and in assay [3] was more than 7.00 throughout.

Broadly, the pIC50 is the IC50 on a negative log10 scale, so that one unit is a factor of ten.
